# Entries after “also recorded” stand apart in the source; their conditions may differ.
# What was measured:
# [1] = Bioavailability and metabolism of oral and percutaneous DHEA: serum steroids on 1st and 14th day
# From the text: Thirty-six healthy 60-70-year-old postmenopausal women participated in the study after IRB approval and having given their written informed consent. Body weight was within ±20% of normal body weight according to Metropolitan Life Tables.
# This study was a randomized open-label trial of 12 subjects per arm. After written informed consent was obtained and women were found eligible, each subject was randomized to receive DHEA by cream, gel or orally. Daily, before breakfast, for 14 days, subjects received, at the research clinic, either 4 g of 10% DHEA gel or 4 g of 10% DHEA cream applied on a total 30 cm×30 cm area of the thighs or two 50 mg capsules of DHEA orally before breakfast.
# Blood sampling was performed at 08:00-09:00 h at screening and before application of DHEA, on the first day of dosing, as well as on days 2, 4, 7, 10 and 14. On the 1st and 14th days, blood samples were obtained at 0.5 h, 1 h, 1.5 h, 2 h, 3 h, 4 h, 5 h, 6 h, 7 h, 8 h, 12 h and 24 h following DHEA administration.
# DHEA, DHEA-S, androst-5-ene-3β,17β-diol (5-diol), testosterone, androstenedione (4-dione), 17β-estradiol (E2), estrone (E1), estrone sulfate (E1-S), androsterone glucuronide (ADT-G), and androstane-3*,17β-diol glucuronide (3α-diol-G) were measured by gas chromatography/mass spectrometry (DHEA, 5-diol, 4-dione, testosterone, E1 and E2) using electron impact or chemical ionization and by liquid chromatography/tandem mass spectrometry using turboionspray (DHEA-S, E1-S, ADT-G and 3α-diol-G) as described (Labrie, Bélanger et al., 2006; Labrie, Bélanger, et al, 2007b and Swanson et al. 2007).
# On days 1 and 14, the area under the curve of the serum concentration of each steroid was measured between 0 h and 24 h (AUC0-24 h). The areas under the curves were calculated by a linear trapezoidal method (model-independent). The relative bioavailability of the DHEA gel, DHEA cream and DHEA capsules was based on the mean difference in the log-transformed AUC values. All calculations were performed with the SAS software (SAS Institute, Cary, N.C., USA).
# [2] = Serum levels of DHEA and eleven metabolites after daily intravaginal DHEA suppositories (clinical trial ERC-213); assay type: in vivo, 40-75 year-old postmenopausal women; settings: 0.5% DHEA intravaginal
# From the text: The primary objective of that study was the evaluation of the systemic bioavailability of DHEA and its metabolites following daily intravaginal application of suppositories at four different DHEA concentrations. This study was a randomized, placebo-controlled and double-blind trial of 10-subjects per arm.
# [3] = system: postmenopausal women with vaginal atrophy; experiment: Vaginal examination: secretions, color, epithelial integrity, surface thickness (ERC-210); assay type: in vivo; settings: 2, 4, 8 and 12 weeks
# From the text: At the same time intervals of 2, 4, 8 and 12 weeks, the gynecologist or physician in charge of the study at each site performed a vaginal exam to evaluate the degree of severity (none, mild, moderate or severe, analyzed using values of 0, 1, 2 and 3, respectively) for the main signs of vaginal atrophy, namely vaginal secretions, vaginal color, vaginal epithelial integrity and vaginal epithelial surface thickness. […] In fact, the beneficial effects observed by the gynecologist and or physician are almost superimposable to those self-reported by women on their most bothersome symptoms.
# Vaginal examination was performed at screening and then at day 1 and at 2, 4, 8 and 12 weeks. Vaginal secretions, vaginal color, vaginal epithelial integrity and vaginal epithelial surface thickness were evaluated according to the following degrees of severity: none, mild, moderate or severe.
# [4] = cited from earlier work
# endometrium [5] = experiment: Endometrial biopsy histology (ERC-210); assay type: in vivo, postmenopausal women; settings: 3 months of intravaginal administration
# Procedure: Endometrial biopsy was performed at screening and at month 3 at end of study. All biopsies were examined by the same pathologist at the central laboratory (Dr. Robert Dubé, Department of cytology-pathology, Enfant-Jésus Hospital, Quebec City, Canada).
# [6] = one week daily intravaginal, mass spectrometry (Labrie, Cusan et al. 2008); cited from earlier work
# [7] = system: postmenopausal women with vaginal atrophy; settings: cited from earlier work
# endometrium [8] = settings: cited from earlier work
# [9] = 24 h after 14th daily administration, oral or percutaneous
# [10] = daily oral 50 mg (Arlt et al. 2001)
structure (smiles),measurement,setting,value
"C[C@]12CC[C@H](O)CC1=CC[C@@H]1[C@@H]2CC[C@]2(C)C(=O)CC[C@@H]12 [DHEA, dehydroepiandrosterone]","Change in serum E1, E2 or testosterone AUC0-24 h",[1]; 14th day compared to predosing,no significant change
same,Change in serum DHEA-S,"[1]; 14th day, application of DHEA on the skin",No significant change
same,Change in serum E1-S,[1]; [9],did not change
same,Change in serum levels of E1 or E2,[1]; [9],no significant change
same,Change of serum ADT-G or 3α-diol-G,"[1]; day 1, up to 24 h, 4 g of 10% DHEA on the skin",no significant change
same,Change in serum ADT-G,"[1]; day 14, application of DHEA on the skin",No significant change
same,Change in serum 3α-diol-G,"[1]; day 14, percutaneous administration",No significant change
same,"Higher level of transformation of DHEA into ADT-G and 3α-diol-G, oral vs percutaneous","[1]; female, human, serum, po",approximately 10 fold
same,"Transformation of DHEA into 4-dione, oral compared to percutaneous","[1]; female, human, serum, po",2.70-3.76 times
same,Change in serum E1-S,[1]; first 24 h,did not change significantly
same,Effect on serum levels of E1 or E2,"[1]; first 24 h, oral or percutaneous route",no statistically significant effect
same,"Serum levels of active estrogens (E1, E2, E1S) and androgens (testo, DHT)",[2],not significantly affected; also recorded: does not increase
same,Signs of vaginal atrophy at vaginal exam,[3],highly statistically significant improvement of all four signs of vaginal atrophy
same,Serum DHEA and testosterone levels,"[4]; 23 h after last administration, 25 mg oral 6 months",not changed significantly
same,Effect on serum testosterone or DHT,[4]; [10],no significant effect
same,Increase of DHEA and ADT-G,[4]; [10],80-90%
same,Androgen metabolites as % of levels found in premenopausal women,"[4]; daily oral 100 mg (Labrie, Bélanger et al. 2007)",74%
same,Effect on endometrial histology,endometrium [5],no effect on endometrial histology
"C[C@]12CC[C@@H]3c4ccc(O)cc4CC[C@H]3[C@@H]1CC[C@@H]2O [E2, 17β-estradiol]",Increase in serum E2,[6],5 fold
same,Cases with persisting dyspareunia,"[7]; 25 μg intravaginally, 12 months (Simunic 2003)",12.4%
same,Patients having a pH less than 5.0,[7]; 12 weeks intravaginal 25 μg (Bachmann 2008),51%
CCCCC(=O)O[C@H]1CC[C@H]2[C@@H]3CCc4cc(O)ccc4[C@H]3CC[C@]12C [estradiol valerate],Increase of Ki labeling,"endometrium [8]; 2 mg/day, 3 months (Zang 2007)",50%
CCCCCCCCCCC(=O)O[C@H]1CC[C@H]2[C@@H]3CCC4=CC(=O)CC[C@]4(C)[C@H]3CC[C@]12C [testosterone undecanoate],Effect on the endometrium,endometrium [8]; 40 mg every second day (Zang 2007),no effect on the endometrium
C[C@]12CC[C@H]3[C@@H](CCC4=CC(=O)CC[C@@]43C)[C@@H]1CC[C@@H]2O [testosterone],Proliferation with simultaneous administration of testosterone,endometrium [8]; with estradiol valerate 2 mg/day (Zang 2007),28%

# Reference: patent publication US10881650B2, “Pharmaceutical compositions” (priority 2007, dated 2021)
